Patent US20260070903A1, “NOVEL PYRIDO[3,4-D]PYRIMIDIN-8-ONE DERIVATIVE HAVING PROTEIN KINASE INHIBITORY ACTIVITY, AND PHARMACEUTICAL COMPOSITION FOR PREVENTING, ALLEVIATING, OR TREATING CANCER, COMPRISING SAME” (KOREA INSTITUTE OF SCIENCE AND TECHNOLOGY, priority 2019, published 2026)

Columns and labels:
[1] = target: ZAK (Homo sapiens, UniProt Q9NYL2); test: Kinase panel biochemical assay, ZAK; conditions: single concentration of 1 μM, read-out: percent inhibition of kinase
Description: (§1) As a test compound, Compound No. 55 was used. The percent inhibition of each kinase when treated with the test compound at a single concentration of 1 μM was measured, and the residual enzyme activity values (%) of the kinases were calculated. Kinases whose calculated residual enzyme activity values (%) was 30% or less (i.e., kinases inhibited by 70% or more) are as follows: […]

[2] = target: EPHA6 (Homo sapiens, UniProt Q9UF33); test: Kinase panel biochemical assay, EPHA6; conditions: single concentration of 1 μM, read-out: percent inhibition of kinase
Description: as §1

[3] = target: FLT1 (Homo sapiens, UniProt P17948); test: Kinase panel biochemical assay, FLT1; conditions: single concentration of 1 μM, read-out: percent inhibition of kinase
Chain of FLT1 (P17948 27-1338): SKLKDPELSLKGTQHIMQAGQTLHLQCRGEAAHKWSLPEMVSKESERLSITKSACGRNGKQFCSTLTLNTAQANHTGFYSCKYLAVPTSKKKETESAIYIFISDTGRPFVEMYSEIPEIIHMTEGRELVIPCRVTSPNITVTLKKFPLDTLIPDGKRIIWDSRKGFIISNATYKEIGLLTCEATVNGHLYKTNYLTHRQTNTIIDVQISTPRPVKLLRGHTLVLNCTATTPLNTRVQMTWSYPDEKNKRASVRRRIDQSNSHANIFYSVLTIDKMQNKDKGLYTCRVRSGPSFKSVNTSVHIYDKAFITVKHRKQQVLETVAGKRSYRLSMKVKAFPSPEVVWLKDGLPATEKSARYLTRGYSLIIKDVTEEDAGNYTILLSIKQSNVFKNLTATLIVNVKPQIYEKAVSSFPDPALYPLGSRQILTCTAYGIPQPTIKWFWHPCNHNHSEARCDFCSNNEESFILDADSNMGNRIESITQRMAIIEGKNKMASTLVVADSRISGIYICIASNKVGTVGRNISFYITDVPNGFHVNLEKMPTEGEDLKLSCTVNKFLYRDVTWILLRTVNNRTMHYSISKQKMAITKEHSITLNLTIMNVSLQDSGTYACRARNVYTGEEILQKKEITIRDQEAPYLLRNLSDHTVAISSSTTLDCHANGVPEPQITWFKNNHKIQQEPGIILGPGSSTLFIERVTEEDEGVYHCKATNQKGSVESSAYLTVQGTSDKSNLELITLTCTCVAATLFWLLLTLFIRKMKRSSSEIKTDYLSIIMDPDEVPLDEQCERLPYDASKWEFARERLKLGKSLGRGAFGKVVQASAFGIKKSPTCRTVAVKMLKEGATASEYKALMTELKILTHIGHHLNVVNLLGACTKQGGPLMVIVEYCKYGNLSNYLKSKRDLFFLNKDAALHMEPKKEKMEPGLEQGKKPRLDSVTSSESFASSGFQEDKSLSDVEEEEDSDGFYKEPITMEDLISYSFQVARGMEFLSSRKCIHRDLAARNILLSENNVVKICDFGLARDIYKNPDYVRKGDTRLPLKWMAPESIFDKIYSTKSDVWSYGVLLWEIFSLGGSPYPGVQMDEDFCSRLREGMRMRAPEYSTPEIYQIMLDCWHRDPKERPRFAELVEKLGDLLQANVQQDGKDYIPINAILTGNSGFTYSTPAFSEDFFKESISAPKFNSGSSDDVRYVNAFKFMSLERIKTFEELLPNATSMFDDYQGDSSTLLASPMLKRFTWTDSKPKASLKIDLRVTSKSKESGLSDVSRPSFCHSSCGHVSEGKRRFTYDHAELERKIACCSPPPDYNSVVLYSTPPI
Description: as §1

[4] = target: BRK (Homo sapiens, UniProt Q13882); test: Kinase panel biochemical assay, BRK; conditions: single concentration of 1 μM, read-out: percent inhibition of kinase
Description: as §1

[5] = target: p38b (Homo sapiens, UniProt Q15759); test: Kinase panel biochemical assay, p38b; conditions: single concentration of 1 μM, read-out: percent inhibition of kinase
Chain of p38b (Q15759 whole entry): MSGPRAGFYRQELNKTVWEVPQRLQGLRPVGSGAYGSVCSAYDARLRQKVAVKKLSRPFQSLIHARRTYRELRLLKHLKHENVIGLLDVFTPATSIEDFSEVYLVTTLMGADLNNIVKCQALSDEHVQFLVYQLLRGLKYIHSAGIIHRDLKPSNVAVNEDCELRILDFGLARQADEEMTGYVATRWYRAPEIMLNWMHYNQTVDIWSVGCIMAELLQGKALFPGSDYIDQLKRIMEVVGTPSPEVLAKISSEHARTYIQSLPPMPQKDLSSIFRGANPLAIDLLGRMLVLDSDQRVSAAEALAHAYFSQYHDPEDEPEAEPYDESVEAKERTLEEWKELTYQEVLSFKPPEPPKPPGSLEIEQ
Description: as §1

[6] = target: EPHA4 (Homo sapiens, UniProt P54764); test: Kinase panel biochemical assay, EPHA4; conditions: single concentration of 1 μM, read-out: percent inhibition of kinase
Description: as §1

[7] = target: EPHA3 (Homo sapiens, UniProt P29320); test: Kinase panel biochemical assay, EPHA3; conditions: single concentration of 1 μM, read-out: percent inhibition of kinase
Description: as §1

[8] = target: FRK (Homo sapiens, UniProt P42685); test: Kinase panel biochemical assay, FRK; conditions: single concentration of 1 μM, read-out: percent inhibition of kinase
Description: as §1

[9] = target: YSK4 (Homo sapiens, UniProt Q56UN5); test: Kinase panel biochemical assay, YSK4; conditions: single concentration of 1 μM, read-out: percent inhibition of kinase
Description: as §1

[10] = target: FMS (Homo sapiens, UniProt P07333); test: Kinase panel biochemical assay, FMS; conditions: single concentration of 1 μM, read-out: percent inhibition of kinase
Description: as §1

[11] = system: Ba/F3 (N-Ras G12D); test: Proliferation inhibitory activity, Ba/F3 N-Ras G12D; format: cell-based; conditions: Mus musculus, BaF3
Description: The inhibitory activities of the compounds of the present disclosure against the proliferation of the mt-NRAS (G12D) Ba/F3 and OCI-AML3 (mt-NRAS) cell lines were measured and the GI50 values thereof were calculated.

[12] = target: T1, ACK1 (Homo sapiens, UniProt Q07912); test: Kinase panel biochemical assay, ACK1; conditions: single concentration of 1 μM, read-out: percent inhibition of kinase
T1 sequence (Q07912 whole entry): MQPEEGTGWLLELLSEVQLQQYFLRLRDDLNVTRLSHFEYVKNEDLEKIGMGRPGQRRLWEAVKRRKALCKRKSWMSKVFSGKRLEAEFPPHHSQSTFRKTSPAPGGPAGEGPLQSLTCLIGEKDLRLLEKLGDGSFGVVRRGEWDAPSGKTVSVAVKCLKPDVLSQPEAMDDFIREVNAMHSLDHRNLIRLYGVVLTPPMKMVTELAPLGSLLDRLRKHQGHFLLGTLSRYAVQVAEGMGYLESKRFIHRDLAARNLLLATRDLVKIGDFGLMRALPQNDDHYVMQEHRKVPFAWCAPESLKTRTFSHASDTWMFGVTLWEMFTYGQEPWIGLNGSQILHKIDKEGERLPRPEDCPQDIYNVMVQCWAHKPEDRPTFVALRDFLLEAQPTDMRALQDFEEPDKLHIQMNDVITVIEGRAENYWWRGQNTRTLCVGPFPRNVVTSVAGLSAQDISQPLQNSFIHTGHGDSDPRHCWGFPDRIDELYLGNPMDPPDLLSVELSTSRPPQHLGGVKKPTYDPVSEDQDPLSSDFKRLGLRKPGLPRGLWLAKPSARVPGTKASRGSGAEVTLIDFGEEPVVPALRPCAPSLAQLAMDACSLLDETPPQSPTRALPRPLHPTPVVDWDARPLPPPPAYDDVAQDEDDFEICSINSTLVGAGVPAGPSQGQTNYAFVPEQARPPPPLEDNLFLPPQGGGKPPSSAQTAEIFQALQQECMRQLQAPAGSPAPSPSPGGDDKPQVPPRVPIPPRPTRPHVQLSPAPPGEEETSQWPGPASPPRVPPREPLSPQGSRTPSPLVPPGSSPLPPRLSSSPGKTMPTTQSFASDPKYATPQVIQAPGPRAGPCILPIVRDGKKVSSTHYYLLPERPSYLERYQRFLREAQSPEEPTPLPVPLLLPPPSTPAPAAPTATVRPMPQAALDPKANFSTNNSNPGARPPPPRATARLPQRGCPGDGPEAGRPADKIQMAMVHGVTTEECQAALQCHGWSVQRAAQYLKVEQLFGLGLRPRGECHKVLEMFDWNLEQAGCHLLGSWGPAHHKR
Description: as §1

[13] = target: EPHB2 (Homo sapiens, UniProt P29323); test: Kinase panel biochemical assay, EPHB2; conditions: single concentration of 1 μM, read-out: percent inhibition of kinase
Description: as §1

[14] = target: EPHA8 (Homo sapiens, UniProt P29322); test: Kinase panel biochemical assay, EPHA8; conditions: single concentration of 1 μM, read-out: percent inhibition of kinase
Description: as §1

[15] = target: FGFR2 (Homo sapiens, UniProt P21802); test: Kinase panel biochemical assay, FGFR2; conditions: single concentration of 1 μM, read-out: percent inhibition of kinase
Chain of FGFR2 (P21802 22-821): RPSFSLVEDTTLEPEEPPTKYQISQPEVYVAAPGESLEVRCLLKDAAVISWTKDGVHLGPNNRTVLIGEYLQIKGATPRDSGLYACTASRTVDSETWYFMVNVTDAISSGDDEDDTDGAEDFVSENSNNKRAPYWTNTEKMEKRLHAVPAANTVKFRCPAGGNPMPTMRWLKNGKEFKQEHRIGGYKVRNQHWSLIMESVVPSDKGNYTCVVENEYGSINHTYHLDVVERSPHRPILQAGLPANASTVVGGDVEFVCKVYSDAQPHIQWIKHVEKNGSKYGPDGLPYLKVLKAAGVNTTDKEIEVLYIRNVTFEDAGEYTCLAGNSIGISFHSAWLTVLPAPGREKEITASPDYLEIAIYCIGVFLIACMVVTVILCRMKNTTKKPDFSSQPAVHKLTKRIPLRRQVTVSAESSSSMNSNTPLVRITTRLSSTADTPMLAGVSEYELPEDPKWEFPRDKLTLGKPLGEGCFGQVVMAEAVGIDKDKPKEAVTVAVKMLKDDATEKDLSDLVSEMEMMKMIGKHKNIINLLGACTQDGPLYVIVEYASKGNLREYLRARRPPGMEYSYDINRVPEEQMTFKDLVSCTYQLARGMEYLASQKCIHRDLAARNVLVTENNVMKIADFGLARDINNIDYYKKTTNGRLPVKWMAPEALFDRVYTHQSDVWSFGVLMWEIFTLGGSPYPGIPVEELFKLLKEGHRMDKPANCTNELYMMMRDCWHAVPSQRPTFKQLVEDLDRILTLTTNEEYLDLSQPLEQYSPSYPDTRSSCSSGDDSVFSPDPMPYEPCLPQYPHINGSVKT
Description: as §1

[16] = target: FGFR4 (Homo sapiens, UniProt P22455); test: Kinase panel biochemical assay, FGFR4; conditions: single concentration of 1 μM, read-out: percent inhibition of kinase
Description: as §1

[17] = target: EPHA2 (Homo sapiens, UniProt P29317); test: Kinase panel biochemical assay, EPHA2; conditions: single concentration of 1 μM, read-out: percent inhibition of kinase
Description: as §1

[18] = target: c-Src (Homo sapiens, UniProt P12931); test: Kinase panel biochemical assay, c-Src; conditions: single concentration of 1 μM, read-out: percent inhibition of kinase
Description: as §1

[19] = target: FLT4 (Homo sapiens, UniProt P35916); test: Kinase panel biochemical assay, FLT4; conditions: single concentration of 1 μM, read-out: percent inhibition of kinase
Description: as §1

[20] = target: FGFR1 (Homo sapiens, UniProt P11362); test: Kinase panel biochemical assay, FGFR1; conditions: single concentration of 1 μM, read-out: percent inhibition of kinase
Description: as §1

[21] = target: ARAF (Homo sapiens, UniProt P10398); test: Kinase panel biochemical assay, ARAF; conditions: single concentration of 1 μM, read-out: percent inhibition of kinase
Description: as §1

[22] = target: T1, ACK1; test: Inhibitory activity against ACK1 kinase (IC50); format: biochemical
Description: The inhibitory activities of the compounds of the present disclosure against two kinases, GCK and ACK1, were measured, and the IC50 values thereof were calculated.

[23] = target: EPHA1 (Homo sapiens, UniProt P21709); test: Kinase panel biochemical assay, EPHA1; conditions: single concentration of 1 μM, read-out: percent inhibition of kinase
Description: as §1

[24] = target: TYK2 (Homo sapiens, UniProt P29597); test: Kinase panel biochemical assay, TYK2; conditions: single concentration of 1 μM, read-out: percent inhibition of kinase
Description: as §1

[25] = target: EPHB3 (Homo sapiens, UniProt P54753); test: Kinase panel biochemical assay, EPHB3; conditions: single concentration of 1 μM, read-out: percent inhibition of kinase
Chain of EPHB3 (P54753 34-998): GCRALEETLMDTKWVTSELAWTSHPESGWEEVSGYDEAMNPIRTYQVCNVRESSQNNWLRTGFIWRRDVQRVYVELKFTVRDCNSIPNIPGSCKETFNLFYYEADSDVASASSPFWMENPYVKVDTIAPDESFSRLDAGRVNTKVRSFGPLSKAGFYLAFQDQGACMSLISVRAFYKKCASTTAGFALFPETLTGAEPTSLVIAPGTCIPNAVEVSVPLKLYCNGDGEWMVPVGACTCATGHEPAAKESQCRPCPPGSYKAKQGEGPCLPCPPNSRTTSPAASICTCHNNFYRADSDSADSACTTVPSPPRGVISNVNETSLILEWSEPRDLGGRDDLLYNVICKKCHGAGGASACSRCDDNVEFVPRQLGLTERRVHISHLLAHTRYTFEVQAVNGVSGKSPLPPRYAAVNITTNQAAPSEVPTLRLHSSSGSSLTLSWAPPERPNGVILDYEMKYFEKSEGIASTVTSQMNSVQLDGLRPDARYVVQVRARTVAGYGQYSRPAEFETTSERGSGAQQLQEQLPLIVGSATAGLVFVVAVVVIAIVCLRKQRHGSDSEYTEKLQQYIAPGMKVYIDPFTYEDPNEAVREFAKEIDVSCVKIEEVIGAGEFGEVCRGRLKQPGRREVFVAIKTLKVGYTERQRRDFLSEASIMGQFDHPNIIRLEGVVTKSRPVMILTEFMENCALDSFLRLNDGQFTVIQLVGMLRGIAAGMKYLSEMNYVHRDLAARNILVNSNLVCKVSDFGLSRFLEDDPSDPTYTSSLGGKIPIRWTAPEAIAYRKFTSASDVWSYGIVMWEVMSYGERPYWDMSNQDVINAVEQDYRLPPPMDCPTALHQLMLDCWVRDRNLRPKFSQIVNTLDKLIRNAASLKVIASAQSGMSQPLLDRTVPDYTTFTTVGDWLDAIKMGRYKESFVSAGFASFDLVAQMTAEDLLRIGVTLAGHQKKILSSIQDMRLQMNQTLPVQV
Description: as §1

[26] = target: TAOK2 (Homo sapiens, UniProt Q9UL54); test: Kinase panel biochemical assay, TAOK2; conditions: single concentration of 1 μM, read-out: percent inhibition of kinase
Description: as §1

[27] = target: RIPK3 (Homo sapiens, UniProt Q9Y572); test: Kinase panel biochemical assay, RIPK3; conditions: single concentration of 1 μM, read-out: percent inhibition of kinase
Description: as §1

[28] = target: BLK (Homo sapiens, UniProt P51451); test: Kinase panel biochemical assay, BLK; conditions: single concentration of 1 μM, read-out: percent inhibition of kinase
Chain of BLK (P51451 whole entry): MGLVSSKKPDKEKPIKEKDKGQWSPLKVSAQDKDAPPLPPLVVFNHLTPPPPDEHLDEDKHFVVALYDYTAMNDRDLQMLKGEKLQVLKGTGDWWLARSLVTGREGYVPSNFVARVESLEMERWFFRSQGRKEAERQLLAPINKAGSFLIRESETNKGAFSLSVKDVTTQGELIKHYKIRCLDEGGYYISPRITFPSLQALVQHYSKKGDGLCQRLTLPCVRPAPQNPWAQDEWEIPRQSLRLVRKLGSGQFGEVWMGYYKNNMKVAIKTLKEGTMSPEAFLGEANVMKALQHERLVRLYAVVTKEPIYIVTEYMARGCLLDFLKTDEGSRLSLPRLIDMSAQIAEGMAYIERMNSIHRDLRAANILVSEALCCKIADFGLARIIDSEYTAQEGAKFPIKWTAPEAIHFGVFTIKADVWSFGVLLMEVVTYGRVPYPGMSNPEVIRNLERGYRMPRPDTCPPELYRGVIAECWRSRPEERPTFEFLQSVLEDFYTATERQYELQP
Description: as §1

[29] = target: FYN (Homo sapiens, UniProt P06241); test: Kinase panel biochemical assay, FYN; conditions: single concentration of 1 μM, read-out: percent inhibition of kinase
Description: as §1

[30] = target: HCK (Homo sapiens, UniProt P08631); test: Kinase panel biochemical assay, HCK; conditions: single concentration of 1 μM, read-out: percent inhibition of kinase
Description: as §1

[31] = target: EPHB4 (Homo sapiens, UniProt P54760); test: Kinase panel biochemical assay, EPHB4; conditions: single concentration of 1 μM, read-out: percent inhibition of kinase
Description: as §1

[32] = target: EPHA5 (Homo sapiens, UniProt P54756); test: Kinase panel biochemical assay, EPHA5; conditions: single concentration of 1 μM, read-out: percent inhibition of kinase
Description: as §1

inhibition at 1 µM [1]: ≥ 70%
inhibition at 1 µM [2]: ≥ 70%
inhibition at 1 µM [3]: ≥ 70%
inhibition at 1 µM [4]: ≥ 70%
inhibition at 1 µM [5]: ≥ 70%
inhibition at 1 µM [6]: ≥ 70%
inhibition at 1 µM [7]: ≥ 70%
inhibition at 1 µM [8]: ≥ 70%
inhibition at 1 µM [9]: ≥ 70%
inhibition at 1 µM [10]: ≥ 70%
GI50 [11]: < 0.5 µM
inhibition at 1 µM [12]: ≥ 70%
inhibition at 1 µM [13]: ≥ 70%
inhibition at 1 µM [14]: ≥ 70%
inhibition at 1 µM [15]: ≥ 70%
inhibition at 1 µM [16]: ≥ 70%
inhibition at 1 µM [17]: ≥ 70%
inhibition at 1 µM [18]: ≥ 70%
inhibition at 1 µM [19]: ≥ 70%
inhibition at 1 µM [20]: ≥ 70%
inhibition at 1 µM [21]: ≥ 70%
IC50 [22]: 100 to 1000 nM
inhibition at 1 µM [23]: ≥ 70%
inhibition at 1 µM [24]: ≥ 70%
inhibition at 1 µM [25]: ≥ 70%
inhibition at 1 µM [26]: ≥ 70%
inhibition at 1 µM [27]: ≥ 70%
inhibition at 1 µM [28]: ≥ 70%
inhibition at 1 µM [29]: ≥ 70%
inhibition at 1 µM [30]: ≥ 70%
inhibition at 1 µM [31]: ≥ 70%
inhibition at 1 µM [32]: ≥ 70%
Structure (SMILES): Cc1ccc(NC(=O)c2cccc(C(F)(F)F)c2)cc1-c1cc2cnc(N)nc2c(=O)[nH]1 [Compound No. 55, N-(3-(2-amino-8-oxo-7,8-dihydropyrido[3,4-d]pyrimidin-6-yl)-4-methylphenyl)-3-(trifluoromethyl)benzamide]
